Experiment [1] has as its system CC mismatched DNA (melting temperature experiment) (DNA, mismatch bulge abasic) ATCGTCTCGGTATAA/TTATACCCAGACGAT
Kind of experiment: UV melting at 260 nm. The conditions noted are these: compound equimolar to DNA.

Experiment [2] has as its system matched DNA (melting temperature experiment) (DNA, duplex) ATCGTCTCGGTATAA/TTATACCGAGACGAT
Kind of experiment: UV melting at 260 nm. The conditions noted are these: compound equimolar to DNA.

`C1CCC(P(CP(C2CCCCC2)C2CCCCC2)C2CCCCC2)CC1.[Pt+2].[Pt+2].[c-]1ccccc1-c1cccc(-c2ccccn2)n1.[c-]1ccccc1-c1cccc(-c2ccccn2)n1`: the values for the thermal shift (ΔTm) in experiment [1] and in experiment [2] were 6.8 °C and 0.5 °C, respectively.

The values are drawn from paper PMC4757794 (2016).
